In brackets after ≈: the same amount, converted by molar mass.
conditions: buffer; pH 7.4; 200.0 µM

solubility kinetic | Compound
2.4 µg/mL (≈ 8.74 µM) | CN(C)/C=C1/OC(=O)C(C#N)=C1c1ccc(Cl)cc1
42.1 µg/mL (≈ 123 µM) | CCOC(=O)c1c(C)nc(C)c(C(=O)OCC)c1-c1cccc(N)c1
16.4 µg/mL (≈ 58.3 µM) | O=C(OCC(=O)c1cccs1)c1ccc([N+](=O)[O-])o1
4.5 µg/mL (≈ 13.5 µM) | Cc1ccc(N2C(=O)C(Cl)=C(N3CCCCCC3)C2=O)c(C)c1
45.8 µg/mL (≈ 150 µM) | COc1ccc(CCNc2c([N+](=O)[O-])ncn2C)cc1OC
2.8 µg/mL (≈ 8.45 µM) | Cc1cc(C)c(S(=O)(=O)Nc2ccc3[nH]c(=O)[nH]c3c2)c(C)c1
7.3 µg/mL (≈ 25.6 µM) | O=C(c1ccccc1)c1cc2c(cc1[N+](=O)[O-])OCCO2
1.8 µg/mL (≈ 6.33 µM) | CC(=O)c1cccc(NC(=O)Nc2nc(C)cc(C)n2)c1
> 46.9 µg/mL | CC1=CC(C)(C)N(C(=O)CN2C(=O)CCC2=O)c2ccccc21
3.3 µg/mL (≈ 8.91 µM) | O=c1cc(-c2ccccc2)nc(Sc2ccc([N+](=O)[O-])cc2[N+](=O)[O-])[nH]1
> 35.1 µg/mL | CCc1ccc(OC)c(-c2csc(N)n2)c1
> 45.2 µg/mL | Cc1noc(C)c1CN1C(=O)c2cccc([N+](=O)[O-])c2C1=O
34 µg/mL (≈ 135 µM) | Cc1cccc2c(C(=O)O)c3cccc(C)c3nc12
16.3 µg/mL (≈ 53 µM) | COc1ccccc1NC(=O)c1ccc2nc(C)c(C)nc2c1
8.5 µg/mL (≈ 17.8 µM) | CCCCN(C(=O)c1cccc(-c2ccc(OC(C)=O)cc2)c1)c1c(N)n(CCC)c(=O)[nH]c1=O
> 43.4 µg/mL | Cc1ccc(S(=O)(=O)n2ccc3c2CCCC3=O)cc1
< 0.2 µg/mL | COc1ccc(Cn2cnc3c4cc(F)ccc4n(C)c3c2=O)cc1
48.2 µg/mL (≈ 143 µM) | O=C(CN1C(=O)c2ccccc2S1(=O)=O)c1ccc(F)c(F)c1
< 0.3 µg/mL | O=[N+]([O-])c1ccc(Cl)cc1N1CCCCC1
2.1 µg/mL (≈ 6.47 µM) | CC(C)C(NC(=O)CN1C(=O)c2cccc3cccc1c23)C(C)C
47.8 µg/mL (≈ 142 µM) | CC1(C)c2cc(Cl)ccc2-n2c1cc(O)c(-c1ccccc1)c2=O
10.2 µg/mL (≈ 29.9 µM) | COc1ccc(C(=O)COC(=O)/C=C/c2ccccc2[N+](=O)[O-])cc1
> 51.2 µg/mL | CCn1c(=O)c([N+](=O)[O-])c(NCCCn2ccnc2)c2ccccc21
> 42.6 µg/mL | CCc1nc2ccccc2n1CC(=O)Nc1cc(C)on1
> 50.4 µg/mL | Cc1ccc(Cl)cc1NC(=O)CN1C(=O)NC(C)(C2CC2)C1=O (centres undefined)
> 46.1 µg/mL | Cc1ccc(NC(=O)CCN2C(=O)NC(C)(C)C2=O)cc1F

Second part, the compound before the results:

Compound | solubility kinetic
O=C(CN1CCN(Cc2ccccc2)CC1)NCCc1ccccc1 | 47.3 µg/mL (≈ 140 µM)
CNC(=O)/C(C#N)=C/c1cc(C)n(-c2ccc(N3CCOCC3)cc2)c1C | 1.5 µg/mL (≈ 4.12 µM)
O=C(CSc1nnc(-c2ccccn2)o1)Nc1ccccc1 | > 46.9 µg/mL
Br.Cc1ccnc(Nc2nc(-c3ccccc3)cs2)c1 | 0.4 µg/mL
O=C(COc1ccccc1)N1CCN(C(=O)c2ccccc2F)CC1 | > 51.4 µg/mL
O=C(Nc1cccc([N+](=O)[O-])c1)NC1CCS(=O)(=O)C1 (centres undefined) | > 44.9 µg/mL
O=C1NC2(CCCC2)Oc2ccccc21 | > 30.5 µg/mL
O=C(Nc1ccccc1Oc1ccccc1)c1cccs1 | 15.2 µg/mL (≈ 51.5 µM)
O=C(NCc1c[nH]c2ccccc12)c1ccccc1 | > 37.5 µg/mL
CCCN1CCN(S(=O)(=O)c2ccc3c(c2)OCCO3)CC1 | > 49 µg/mL
CN1CCN(c2ccc(CNS(=O)(=O)c3ccccc3)cc2)CC1 | 12.6 µg/mL (≈ 36.5 µM)
O=C(NCc1cccc(F)c1F)C1CCC(=O)N(C2CC2)C1 (centres undefined) | 38.1 µg/mL (≈ 124 µM)
CCOC(=O)N1CCN(C(=S)NC(=O)C2CCCC2)CC1 | > 47 µg/mL
Cl.NCCSC1CC(=O)N(c2ccc(Cl)c(Cl)c2)C1=O (centres undefined) | 32.8 µg/mL
N#Cc1ccccc1COC(=O)CCC(=O)c1cccs1 | > 44.9 µg/mL
O=C(/C=C/c1ccco1)OCC(=O)N1CCCCC1 | > 39.5 µg/mL
O=S(=O)(c1ccccc1)N(CC1CO1)c1cc(Cl)ccc1Cl (centres undefined) | 36.4 µg/mL (≈ 102 µM)
O=C(Nc1ccc(F)cc1)c1ccc2nsnc2c1 | 5.4 µg/mL (≈ 19.8 µM)
COc1ccc(-c2csc(N)n2)cc1F | 23.8 µg/mL (≈ 106 µM)
CC(C)(C)NC(=O)C(=O)NCc1ccccn1 | > 35.3 µg/mL

Compound | solubility kinetic
Cc1ccc(OCCNC(=O)c2ccc(C)o2)cc1 | > 38.9 µg/mL
CS(=O)(=O)N1CCN(C(=O)CSc2ccccc2)CC1 | > 47.2 µg/mL
Cc1cnc(NC(=O)c2ccc(Cl)nc2)s1 | 6.6 µg/mL (≈ 26 µM)
Nc1nc2cc(S(=O)(=O)N3CCOCC3)ccc2o1 | > 42.5 µg/mL
CCN(CC)c1ccc(C=Nc2cccc(S(=O)(=O)N3CCOCC3)c2)c(O)c1 | 8.3 µg/mL (≈ 19.9 µM)
COc1ccc(CCNC(=O)CCCc2ccccc2)cc1 | 35.6 µg/mL (≈ 120 µM)
Cc1cc(C)n2nc(SCC(=O)N3CCN(c4ccccc4)CC3)nc2n1 | > 57.4 µg/mL
Cc1nc(CSc2ccc(Br)cc2)cs1 | 8.8 µg/mL (≈ 29.3 µM)
O=C(NC1CCN(C(=S)Nc2ccc(Cl)cc2)CC1)c1ccco1 | > 54.6 µg/mL
COc1ccc(C(=O)NC(=S)N2CCC(C)CC2)cc1Br | 8 µg/mL (≈ 21.5 µM)
Cc1nc(NC(=O)c2cncc(Br)c2)ccc1Br | 2.1 µg/mL (≈ 5.66 µM)
O=C1CC(c2ccccc2)CN1C(=O)c1cccnc1 (centres undefined) | 34.8 µg/mL (≈ 131 µM)
Cc1ccc(C)c(OCCC(=O)Nc2cc(S(=O)(=O)N3CCCCC3)ccc2C)c1 | 2.4 µg/mL (≈ 5.57 µM)
O=C(Nc1cc(C(F)(F)F)ccc1N1CCOCC1)c1ccncc1 | > 52.7 µg/mL
O=C(c1ccc(F)cc1)C(C(=O)N1CCCCC1)n1ccccc1=O (centres undefined) | > 51.4 µg/mL
CCc1ccc(NC(=O)NCc2cccnc2)cc1 | > 38.3 µg/mL
CC(=O)N1CCN(C(=O)CSc2ncnc3sc(C)c(C)c23)CC1 | > 54.7 µg/mL
CC(C)c1ccc(N2C=Nc3ccc(C(C)C)cc3C2)cc1 | 2.8 µg/mL (≈ 9.58 µM)
CC(C)c1ccc(NC(=O)CCCN2C(=O)NC(C)(C)C2=O)cc1 | 37.8 µg/mL (≈ 114 µM)
O=C(Cc1ccc(Cl)cc1)N1CCOCC1 | > 36 µg/mL

Compound | solubility kinetic
O=C(Nc1ccccc1O)c1ccc(NC(=O)C2CC2)cc1 | 1.9 µg/mL (≈ 6.41 µM)
COc1ccc(C(=O)CCC(C)(C)[N+](=O)[O-])cc1 | 31.8 µg/mL (≈ 127 µM)
CCC(C)(C)NC(=O)C1CC(=O)N(CCc2ccc(F)cc2)C1 (centres undefined) | > 48.1 µg/mL
CSC1=NCCN1C(=O)Cc1cccc2ccccc12 | 20.4 µg/mL (≈ 71.7 µM)
Cc1ccc(S(=O)(=O)N2CCOCC2)cc1NCC(=O)Nc1ccc(OC(F)(F)F)cc1 | 3 µg/mL (≈ 6.34 µM)
CN1CCN(C(=O)c2cc(=O)c3cc(Cl)cc(Cl)c3o2)CC1 | 50.5 µg/mL (≈ 148 µM)
CC1CCCC(NC(=O)COC(=O)[C@@H](NC(=O)c2ccc(F)cc2)C(C)C)C1C (some centres undefined) | 8.7 µg/mL (≈ 21.4 µM)
CC(=O)Nc1ccc(SCC(=O)Nc2sccc2C#N)cc1 | 26.5 µg/mL (≈ 80 µM)
COC(=O)C1CCN(C(=O)COC(=O)/C=C/c2ccc(O)c(OC)c2)CC1 | > 56.6 µg/mL
O=C(CN1C(=O)COc2ccc(Cl)cc21)Nc1ccccn1 | 17 µg/mL (≈ 53.5 µM)
CC(=O)Nc1ccc(S(=O)(=O)N(C)C2CCN(C)CC2)cc1 | > 48.8 µg/mL
COC(=O)C(Cc1ccc(O)cc1)NC(=O)CCc1ccco1 (centres undefined) | 46.5 µg/mL (≈ 147 µM)
CCOc1ccc(NC(=O)C(C)Sc2nccn2C)cc1 (centres undefined) | > 45.8 µg/mL
CN(C)C(=O)COc1ccc2c3c(c(=O)oc2c1)CCCC3 | 44.6 µg/mL (≈ 148 µM)
CC(=O)Oc1ccc(C(=O)NCc2ccco2)cc1 | 37.6 µg/mL (≈ 145 µM)
Cc1ccsc1C(=O)Nc1ccc(OCc2ccccc2)cc1 | < 0.7 µg/mL
Cc1ccc(C(=O)N2CCCC(C(=O)c3cc(F)ccc3F)C2)s1 (centres undefined) | 52.3 µg/mL (≈ 150 µM)
COCCNc1nc(N)c([N+](=O)[O-])c(NC2CCCCC2)n1 | 7.2 µg/mL (≈ 23.2 µM)
